Reference: PubChem BioAssay AID1259407 (Chemical Carcinogenesis Research Information System (CCRIS), 2018)
Activity calls are given as the source filed them. How the calls were made is not given here.

System: CCRIS mutagenicity, Ames/micronucleus/aberration tests
Assay: CCRIS mutagenicity studies
[1] = Test System: AMES SALMONELLA TYPHIMURIUM, Strain/Indicator: TA98, Metabolic Activation: NONE, Method: PREINCUBATION
[2] = Test System: AMES SALMONELLA TYPHIMURIUM, Strain/Indicator: TA100, Metabolic Activation: NONE, Method: PREINCUBATION
[3] = Test System: AMES SALMONELLA TYPHIMURIUM, Strain/Indicator: TA100, Metabolic Activation: NONE, Method: STANDARD PLATE
[4] = Test System: E. COLI, Strain/Indicator: WP2 UVRA, Metabolic Activation: NONE, Method: STANDARD PLATE
[5] = Test System: E. COLI, Strain/Indicator: WP2 UVRA, Metabolic Activation: RAT, LIVER, S-9, Method: STANDARD PLATE

With `Nc1cc([N+](=O)[O-])ccc1-c1ccc([N+](=O)[O-])cc1` the mutagenic call [1] was “active; positive”, the mutagenic call (Test System: AMES SALMONELLA TYPHIMURIUM, Strain/Indicator: TA98, Metabolic Activation: RAT LIVER S-9, AROCLOR 1254, Method: PREINCUBATION) was “active; positive” and the mutagenic call [2] was “active; positive”. The mutagenic call [3] was “active; positive”, the mutagenic call (Test System: AMES SALMONELLA TYPHIMURIUM, Strain/Indicator: TA100, Metabolic Activation: RAT LIVER S-9, AROCLOR 1254, Method: PREINCUBATION) was “active; positive” and the mutagenic call (Test System: AMES SALMONELLA TYPHIMURIUM, Strain/Indicator: TA104, Metabolic Activation: NONE, Method: STANDARD PLATE) was “active; positive”. For the same molecule, the mutagenic call (Test System: AMES SALMONELLA TYPHIMURIUM, Strain/Indicator: TA4001, Metabolic Activation: NONE, Method: STANDARD PLATE) was “inactive; negative”, the mutagenic call (Test System: AMES SALMONELLA TYPHIMURIUM, Strain/Indicator: TA4006, Metabolic Activation: NONE, Method: STANDARD PLATE) was “active; positive” and the mutagenic call (Test System: AMES SALMONELLA TYPHIMURIUM, Strain/Indicator: TA7002, Metabolic Activation: NONE, Method: STANDARD PLATE) was “active; positive”. The mutagenic call (Test System: AMES SALMONELLA TYPHIMURIUM, Strain/Indicator: TA7002, Metabolic Activation: RAT LIVER S-9, AROCLOR 1254, Method: STANDARD PLATE) was “active; positive”, the mutagenic call (Test System: AMES SALMONELLA TYPHIMURIUM, Strain/Indicator: TA7003, Metabolic Activation: NONE, Method: STANDARD PLATE) was “active; positive” and the mutagenic call (Test System: AMES SALMONELLA TYPHIMURIUM, Strain/Indicator: TA7003, Metabolic Activation: RAT LIVER S-9, AROCLOR 1254, Method: STANDARD PLATE) was “active; positive”. The mutagenic call (Test System: AMES SALMONELLA TYPHIMURIUM, Strain/Indicator: TA7004, Metabolic Activation: NONE, Method: STANDARD PLATE) was “active; positive”, the mutagenic call (Test System: AMES SALMONELLA TYPHIMURIUM, Strain/Indicator: TA7004, Metabolic Activation: RAT LIVER S-9, AROCLOR 1254, Method: STANDARD PLATE) was “active; positive” and the mutagenic call (Test System: AMES SALMONELLA TYPHIMURIUM, Strain/Indicator: TA7005, Metabolic Activation: NONE, Method: STANDARD PLATE) was “active; positive”. For the same molecule, the mutagenic call (Test System: AMES SALMONELLA TYPHIMURIUM, Strain/Indicator: TA7005, Metabolic Activation: RAT LIVER S-9, AROCLOR 1254, Method: STANDARD PLATE) was “active; positive”, the mutagenic call (Test System: AMES SALMONELLA TYPHIMURIUM, Strain/Indicator: TA7006, Metabolic Activation: NONE, Method: STANDARD PLATE) was “active; positive” and the mutagenic call (Test System: AMES SALMONELLA TYPHIMURIUM, Strain/Indicator: TA7006, Metabolic Activation: RAT LIVER S-9, AROCLOR 1254, Method: STANDARD PLATE) was “active; positive”. The mutagenic call (Test System: Ames Salmonella typhimurium, Strain/Indicator: TA102, Metabolic Activation: None, Method: Preincubation) was “active; positive” and the mutagenic call (Test System: Ames Salmonella typhimurium, Strain/Indicator: TA102, Metabolic Activation: Rat, liver, S-9, Aroclor 1254 (4%), Method: Preincubation) was “inactive; negative”.

`O=C(Nc1nc(-c2ccc([N+](=O)[O-])o2)cs1)C(F)(F)F` was tested, and the mutagenic call (Test System: AMES SALMONELLA TYPHIMURIUM, Strain/Indicator: TA100, Metabolic Activation: RAT, LIVER, S-9, KC500 OR PHENOBARBITAL, Method: LIQUID SUSPENSION) was “active; positive” and the mutagenic call (Test System: E. COLI WP2, Strain/Indicator: WP2, Metabolic Activation: NONE, Method: SPOT) was “active; positive”.

In the case of `COc1ccc(/C=C/c2cc(OC)cc(=O)o2)cc1`, the mutagenic call (Test System: Mouse lymphoma cells, Strain/Indicator: L5178Y ( tk+/tk-), Metabolic Activation: Human, Liver, S-9, Method: Suspension/plate) is reported as “inactive; negative”.

`CCc1cccc2c(CCO)c[nH]c12` was tested, and the mutagenic call (Test System: AMES SALMONELLA TYPHIMURIUM, Strain/Indicator: TA98, Metabolic Activation: NONE, Method: STANDARD PLATE) was “inactive; negative”, the mutagenic call (Test System: AMES SALMONELLA TYPHIMURIUM, Strain/Indicator: TA98, Metabolic Activation: RAT, LIVER, S-9, Method: STANDARD PLATE) was “inactive; negative” and the mutagenic call [3] was “inactive; negative”. The mutagenic call (Test System: AMES SALMONELLA TYPHIMURIUM, Strain/Indicator: TA100, Metabolic Activation: RAT, LIVER, S-9, Method: STANDARD PLATE) was “inactive; negative”, the mutagenic call (Test System: AMES SALMONELLA TYPHIMURIUM, Strain/Indicator: TA1535, Metabolic Activation: NONE, Method: STANDARD PLATE) was “inactive; negative” and the mutagenic call (Test System: AMES SALMONELLA TYPHIMURIUM, Strain/Indicator: TA1535, Metabolic Activation: RAT, LIVER, S-9, Method: STANDARD PLATE) was “inactive; negative”. For the same molecule, the mutagenic call (Test System: AMES SALMONELLA TYPHIMURIUM, Strain/Indicator: TA1537, Metabolic Activation: NONE, Method: STANDARD PLATE) was “inactive; negative”, the mutagenic call (Test System: AMES SALMONELLA TYPHIMURIUM, Strain/Indicator: TA1537, Metabolic Activation: RAT, LIVER, S-9, Method: STANDARD PLATE) was “inactive; negative” and the mutagenic call [4] was “inactive; negative”. The mutagenic call [5] was “inactive; negative”.

`O=P(OCC(Br)CBr)(OCC(Br)CBr)OCC(Br)CBr` (centres undefined) was tested, and the mutagenic call [2] was “inactive; negative”, the mutagenic call [3] was “inactive; negative” and the mutagenic call (Test System: AMES SALMONELLA TYPHIMURIUM, Strain/Indicator: TA100, Metabolic Activation: RAT LIVER S-9, PHENOBARBITAL, Method: PREINCUBATION) was “active; positive”. For the same molecule, the mutagenic call (Test System: AMES SALMONELLA TYPHIMURIUM, Strain/Indicator: TA100, Metabolic Activation: RAT, LIVER, HEPATOCYTES, PHENOBARBITAL, Method: PREINCUBATION) was “active; positive”, the mutagenic call (Test System: AMES SALMONELLA TYPHIMURIUM, Strain/Indicator: TA100, Metabolic Activation: RAT, LIVER, HEPATOCYTES, Method: PREINCUBATION) was “active; positive” and the mutagenic call (Test System: AMES SALMONELLA TYPHIMURIUM, Strain/Indicator: TA100, Metabolic Activation: RAT, LIVER, MICROSOMES, AROCLOR 1254, Method: STANDARD PLATE) was “active; positive”. The mutagenic call (Test System: AMES SALMONELLA TYPHIMURIUM, Strain/Indicator: TA100, Metabolic Activation: RAT, LIVER, MICROSOMES, PHENOBARBITAL, Method: PREINCUBATION) was “active; positive”, the mutagenic call (Test System: AMES SALMONELLA TYPHIMURIUM, Strain/Indicator: TA100, Metabolic Activation: RAT, LIVER, MICROSOMES, Method: PREINCUBATION) was “active; positive” and the mutagenic call (Test System: AMES SALMONELLA TYPHIMURIUM, Strain/Indicator: TA100, Metabolic Activation: RAT, LIVER, S-9, AROCLOR 1254, Method: STANDARD PLATE) was “active; positive”. For the same molecule, the mutagenic call (Test System: AMES SALMONELLA TYPHIMURIUM, Strain/Indicator: TA104, Metabolic Activation: RAT LIVER S-9, PHENOBARBITAL, Method: PREINCUBATION) was “active; positive”, the mutagenic call (Test System: AMES SALMONELLA TYPHIMURIUM, Strain/Indicator: TA1535, Metabolic Activation: RAT, LIVER, S-9, AROCLOR 1254, Method: STANDARD PLATE) was “active; positive” and the mutagenic call (Test System: CHINESE HAMSTER V-79, Strain/Indicator: V-79/6-THIOGUANINE, Metabolic Activation: RAT, LIVER, MICROSOMES, PHENOBARBITAL) was “active; positive”. For the same molecule, the mutagenic call (Test System: E. COLI, Strain/Indicator: WP2 UVRA, Metabolic Activation: MOUSE, LIVER, S-9, Method: STANDARD PLATE) was “inactive; negative”, the mutagenic call [4] was “inactive; negative” and the mutagenic call [5] was “inactive; negative”. The mutagenic call (Test System: UDS RAT HEPATOCYTES, Strain/Indicator: THY INCORP, Metabolic Activation: NONE) was “active; positive”, the mutagenic call (Test System: UDS RODENT HEPATOCYTES, Strain/Indicator: THY INCORP (NON-S-PHASE), Metabolic Activation: RAT, LIVER, HEPATOCYTES, PHENOBARBITAL, Method: LIQUID SCINTILLATION COUNTING) was “active; positive” and the mutagenic call (Test System: UDS RODENT HEPATOCYTES, Strain/Indicator: THY INCORP (NON-S-PHASE), Metabolic Activation: RAT, LIVER, HEPATOCYTES, Method: LIQUID SCINTILLATION COUNTING) was “active; positive”.

`Cn1c(N=[N+]=[N-])nc2ncc(-c3ccccc3)cc21` was tested, and the mutagenic call (Test System: AMES SALMONELLA TYPHIMURIUM, Strain/Indicator: TA98(1,8-DNP6), Metabolic Activation: NONE, Method: PREINCUBATION) was “active; positive”, the mutagenic call (Test System: AMES SALMONELLA TYPHIMURIUM, Strain/Indicator: TA98(NR), Metabolic Activation: NONE, Method: PREINCUBATION) was “active; positive” and the mutagenic call [1] was “active; positive”. For the same molecule, the mutagenic call (Test System: AMES SALMONELLA TYPHIMURIUM, Strain/Indicator: YG1024, Metabolic Activation: NONE, Method: PREINCUBATION) was “active; positive”.

`O=Cc1c(O)cc2c(c1O)C(=O)c1ccccc1C2=O` was tested, and the mutagenic call [1] was “inactive; negative”, the mutagenic call (Test System: AMES SALMONELLA TYPHIMURIUM, Strain/Indicator: TA98, Metabolic Activation: RAT, LIVER, S-9, PCB, Method: PREINCUBATION) was “inactive; negative” and the mutagenic call [2] was “inactive; negative”. The mutagenic call (Test System: AMES SALMONELLA TYPHIMURIUM, Strain/Indicator: TA100, Metabolic Activation: RAT, LIVER, S-9, PCB, Method: PREINCUBATION) was “inactive; negative”.
